# Source: patent US8445409B2, “Use of 5-benzyloxymethyl-1,2-isoxazoline derivatives as a herbicide” (Moghu Research Center Ltd., priority 2007, dated 2013)
# Columns and labels:
# Large crabgrass = assay: Selective control of grassy weeds in turf (Example 3-1), visual rating; assay type: in vivo; details: four weeks after spray, 0-100 scale (100=completely killed); for Herbicidal activity, visual: Weeds LCG (POST): 3 leaf stage
# Text: (§1) Commercially available sod mats of zoysiagrass and bentgrass, Kentucky bluegrass, and perennial ryegrass were purchased. After cutting each turf sod mat in a size of 10 cm×20 cm, it was transplanted to a rectangular plastic pot having a surface area of 300 cm^2 wherein mixed soils including blend of a bed soil (Boonong, Horticultural Nursery Soil No. 3) and sandy loam soil were filled (mixing ratio, 1:1). After transplanting, the grass was mowed (0.5˜1.0 cm in height) once a week, and kept for one month in a greenhouse maintained at 25˜30° C. (day) or 15˜25° C. (night). Then three strips of 1 cm width were removed by excision with a scissor. The open space was filled with a new soil, and seeds of large crabgrass, annual bluegrass, or goosegrass were sown. The pots were kept in a greenhouse. When the said weeds were grown up to the 3 leaf stage, another set was prepared in the same method. The first set represented post-emergence (POST) and the second set represented pre-emergence (PRE) stages of the weeds (large crabgrass, annual bluegrass, goosegrass). Then the test compound was applied at 0.25, 0.5. 1.0, 2.0, and 4.0 kg/ha. Spray was made by a track sprayer equipped with a Teejet 8002 nozzle. Spray volume was adjusted to 2,000 L/ha. The spray solution was prepared by dissolving the “test substance” in acetone and adding the same volume of 0.2% (v/v) Tween 20 aqueous solution. Four weeks after the spray of the test substance, phytotoxicity to the turfgrass and herbicidal activity to the said weeds were visually evaluated based on 0 to 100 scale (0: no phytotoxic effect, 100: completely killed). The test was conducted in a completely randomized design with 3 replicates.
# Annual bluegrass = assay: as above; assay type: in vivo; details: four weeks after spray, 0-100 scale (100=completely killed); for Herbicidal activity, visual: Weeds ABG (POST): 3 leaf stage
# Text: as §1
# Bentgrass [1] = assay: as above; assay type: in vivo; details: four weeks after spray, 0-100 scale (100=completely killed)
# Text: as §1
# Perennial ryegrass [2] = assay: as above; assay type: in vivo; details: four weeks after spray, 0-100 scale (100=completely killed)
# Text: as §1
# Goosegrass = assay: as above; assay type: in vivo; details: four weeks after spray, 0-100 scale (100=completely killed); for Herbicidal activity, visual: Weeds GSG (POST): 3 leaf stage
# Text: as §1
# Kentucky bluegrass [3] = assay: as above; assay type: in vivo; details: four weeks after spray, 0-100 scale (100=completely killed)
# Text: as §1
# Zoysiagrass = assay: as above; assay type: in vivo; details: four weeks after spray, 0-100 scale (100=completely killed)
# Text: as §1
# [4] = tested on: all the tested gramineous weeds; assay: Example 3-1, gramineous weeds as a group; assay type: in vivo, large crabgrass, annual bluegrass, goosegrass; details: PRE and POST timings, 0.25 kg/ha to 4 kg/ha
# Text: Commercially available sod mats of zoysiagrass and bentgrass, Kentucky bluegrass, and perennial ryegrass were purchased. After cutting each turf sod mat in a size of 10 cm×20 cm, it was transplanted to a rectangular plastic pot having a surface area of 300 cm^2 wherein mixed soils including blend of a bed soil (Boonong, Horticultural Nursery Soil No. 3) and sandy loam soil were filled (mixing ratio, 1:1). After transplanting, the grass was mowed (0.5˜1.0 cm in height) once a week, and kept for one month in a greenhouse maintained at 25˜30° C. (day) or 15˜25° C. (night). Then three strips of 1 cm width were removed by excision with a scissor. The open space was filled with a new soil, and seeds of large crabgrass, annual bluegrass, or goosegrass were sown. The pots were kept in a greenhouse. When the said weeds were grown up to the 3 leaf stage, another set was prepared in the same method. The first set represented post-emergence (POST) and the second set represented pre-emergence (PRE) stages of the weeds (large crabgrass, annual bluegrass, goosegrass). Then the test compound was applied at 0.25, 0.5. 1.0, 2.0, and 4.0 kg/ha. […] Four weeks after the spray of the test substance, phytotoxicity to the turfgrass and herbicidal activity to the said weeds were visually evaluated based on 0 to 100 scale (0: no phytotoxic effect, 100: completely killed). […]
# [5] = tested on: all types of the turfgrasses; assay: Turfgrass safety test, all turfgrasses as a group; assay type: in vivo
# Text: (§2) Commercially available sod mats of zoysiagrass and bentgrass, Kentucky bluegrass, and perennial ryegrass were purchased. After cutting each turf sod mat in a size of 10 cm×20 cm, it was transplanted to a rectangular plastic pot having a surface area of 300 cm^2 wherein mixed soils including blend of a bed soil (Boonong, Horticultural Nursery Soil No. 3) and sandy loam soil were filled (mixing ratio, 1:1). After transplanting, the grass was mowed (0.5˜1.0 cm in height) once a week, and kept for one month in a greenhouse maintained at 25˜30° C. (day) or 15˜25° C. (night), then the test substance of the present invention was applied at dosage of 4, 2, 1 and 0.5 kg/ha. As a reference, Dithiopyr (32% EC, manufactured by Dongbu Hannong Chemical Company, KOREA) was applied at the recommended rate of 0.48 kg/ha, or twice or quadruple amount thereof, i.e., 0.96 and 1.92 kg/ha, respectively. Spray was made by a track sprayer equipped with a Teejet 8002 nozzle. Spray volume was adjusted to 2,000 L/ha, which was a typical value for an Asian (Korea and Japan) golf course. The spray solution was prepared by dissolving the “test substance” in acetone and adding the same volume of 0.2% (v/v) Tween 20 aqueous solution. Two, four or six weeks after the spray of the test substance, phytotoxicity to the turfgrass were visually evaluated based on 0 to 10 scale (0: no phytotoxic effect, 10: completely killed). The test was conducted in a randomized block design with a three replicates and the results were summarized in the following Table 2 is an average value of the replicates.
# Bentgrass [6] = assay: Turfgrass safety test (sod mat pots), visual phytotoxicity; assay type: in vivo; details: in vivo
# Text: as §2
# Perennial ryegrass [7] = assay: as above; assay type: in vivo; details: in vivo
# Text: as §2
# Kentucky bluegrass [8] = assay: as above; assay type: in vivo; details: in vivo
# Text: as §2
compound,measurement,setting,value
"Cc1ccsc1C1=NOC(C)(COCc2c(F)cccc2F)C1 (stereo not drawn) [test substance, 5-(2,6-difluorobenzyl)oxymethyl-5-methyl-3-(4-methylthiophen-5-yl)-1,2-isoxazoline]","Herbicidal activity, visual: Weeds LCG (POST)",Large crabgrass; 0.25 kg/ha,80
same,"Herbicidal activity, visual: Weeds LCG (PRE)",Large crabgrass; 0.25 kg/ha,100
same,"Herbicidal activity, visual: Weeds LCG (POST)",Large crabgrass; 0.5 kg/ha,90
same,"Herbicidal activity, visual: Weeds LCG (PRE)",Large crabgrass; 0.5 kg/ha,100
same,"Herbicidal activity, visual: Weeds LCG (POST)",Large crabgrass; 1 kg/ha,95
same,"Herbicidal activity, visual: Weeds LCG (PRE)",Large crabgrass; 1 kg/ha,100
same,"Herbicidal activity, visual: Weeds LCG (POST)",Large crabgrass; 2 kg/ha,100
same,"Herbicidal activity, visual: Weeds LCG (PRE)",Large crabgrass; 2 kg/ha,100
same,"Herbicidal activity, visual: Weeds LCG (POST)",Large crabgrass; 4 kg/ha,100
same,"Herbicidal activity, visual: Weeds LCG (PRE)",Large crabgrass; 4 kg/ha,100
same,"Herbicidal activity, visual: Weeds ABG (POST)",Annual bluegrass; 0.25 kg/ha,60
same,"Herbicidal activity, visual: Weeds ABG (PRE)",Annual bluegrass; 0.25 kg/ha,100
same,"Herbicidal activity, visual: Weeds ABG (POST)",Annual bluegrass; 0.5 kg/ha,75
same,"Herbicidal activity, visual: Weeds ABG (PRE)",Annual bluegrass; 0.5 kg/ha,100
same,"Herbicidal activity, visual: Weeds ABG (POST)",Annual bluegrass; 1 kg/ha,83
same,"Herbicidal activity, visual: Weeds ABG (PRE)",Annual bluegrass; 1 kg/ha,100
same,"Herbicidal activity, visual: Weeds ABG (POST)",Annual bluegrass; 2 kg/ha,92
same,"Herbicidal activity, visual: Weeds ABG (PRE)",Annual bluegrass; 2 kg/ha,100
same,"Herbicidal activity, visual: Weeds ABG (POST)",Annual bluegrass; 4 kg/ha,95
same,"Herbicidal activity, visual: Weeds ABG (PRE)",Annual bluegrass; 4 kg/ha,100
same,"Phytotoxicity, visual: Turfgrass BTG",Bentgrass [1]; 0.25 kg/ha,0
same,"Phytotoxicity, visual: Turfgrass BTG",Bentgrass [1]; 0.5 kg/ha,0
same,"Phytotoxicity, visual: Turfgrass BTG",Bentgrass [1]; 1 kg/ha,0
same,"Phytotoxicity, visual: Turfgrass BTG",Bentgrass [1]; 2 kg/ha,0
same,"Phytotoxicity, visual: Turfgrass BTG",Bentgrass [1]; 4 kg/ha,10
same,"Phytotoxicity, visual: Turfgrass PRG",Perennial ryegrass [2]; 0.25 kg/ha,0
same,"Phytotoxicity, visual: Turfgrass PRG",Perennial ryegrass [2]; 0.5 kg/ha,0
same,"Phytotoxicity, visual: Turfgrass PRG",Perennial ryegrass [2]; 1 kg/ha,0
same,"Phytotoxicity, visual: Turfgrass PRG",Perennial ryegrass [2]; 2 kg/ha,0
same,"Phytotoxicity, visual: Turfgrass PRG",Perennial ryegrass [2]; 4 kg/ha,0
same,"Herbicidal activity, visual: Weeds GSG (POST)",Goosegrass; 0.25 kg/ha,85
same,"Herbicidal activity, visual: Weeds GSG (PRE)",Goosegrass; 0.25 kg/ha,100
same,"Herbicidal activity, visual: Weeds GSG (POST)",Goosegrass; 0.5 kg/ha,95
same,"Herbicidal activity, visual: Weeds GSG (PRE)",Goosegrass; 0.5 kg/ha,100
same,"Herbicidal activity, visual: Weeds GSG (POST)",Goosegrass; 1 kg/ha,100
same,"Herbicidal activity, visual: Weeds GSG (PRE)",Goosegrass; 1 kg/ha,100
same,"Herbicidal activity, visual: Weeds GSG (POST)",Goosegrass; 2 kg/ha,100
same,"Herbicidal activity, visual: Weeds GSG (PRE)",Goosegrass; 2 kg/ha,100
same,"Herbicidal activity, visual: Weeds GSG (POST)",Goosegrass; 4 kg/ha,100
same,"Herbicidal activity, visual: Weeds GSG (PRE)",Goosegrass; 4 kg/ha,100
same,"Phytotoxicity, visual: Turfgrass KBG",Kentucky bluegrass [3]; 0.25 kg/ha,0
same,"Phytotoxicity, visual: Turfgrass KBG",Kentucky bluegrass [3]; 0.5 kg/ha,0
same,"Phytotoxicity, visual: Turfgrass KBG",Kentucky bluegrass [3]; 1 kg/ha,0
same,"Phytotoxicity, visual: Turfgrass KBG",Kentucky bluegrass [3]; 2 kg/ha,0
same,"Phytotoxicity, visual: Turfgrass KBG",Kentucky bluegrass [3]; 4 kg/ha,21
same,"Phytotoxicity, visual: Turfgrass ZSG",Zoysiagrass; 0.25 kg/ha,0
same,"Phytotoxicity, visual: Turfgrass ZSG",Zoysiagrass; 0.5 kg/ha,0
same,"Phytotoxicity, visual: Turfgrass ZSG",Zoysiagrass; 1 kg/ha,0
same,"Phytotoxicity, visual: Turfgrass ZSG",Zoysiagrass; 2 kg/ha,0
same,"Phytotoxicity, visual: Turfgrass ZSG",Zoysiagrass; 4 kg/ha,12
same,Control of tested gramineous weeds (in words),[4],very effectively
same,Phytotoxicity to turfgrasses (in words),"[5]; 1~2 kg/ha, compared to Dithiopyr at 0.48 kg/ha",negligible phytotoxicity
same,Safety to all types of the turfgrasses (in words),[5]; 4 kg/ha,excellent safety
same,Phytotoxic effect to turfgrasses (in words),[5]; dosage the same or less than 0.5 kg/ha,almost no phytotoxic effect
same,"Phytotoxic effect, visual assessment: Bentgrass Week 2",Bentgrass [6],2.3
same,"Phytotoxic effect, visual assessment: Bentgrass Week 4",Bentgrass [6],3.0
same,"Phytotoxic effect, visual assessment: Perennial ryegrass Week 2",Perennial ryegrass [7],3.0
same,"Phytotoxic effect, visual assessment: Perennial ryegrass Week 4",Perennial ryegrass [7],2.7
same,"Phytotoxic effect, visual assessment: Perennial ryegrass Week 6",Perennial ryegrass [7],2.0
same,Safety to perennial ryegrass (in words),Perennial ryegrass [7],safe
same,"Phytotoxic effect, visual assessment: Kentucky bluegrass Week 6","Kentucky bluegrass [8]; Kentucky bluegrass, 6 weeks",0.0
same,"Phytotoxic effect, visual assessment: Kentucky bluegrass Week 6",Kentucky bluegrass [8],1.0
same,Safety to Kentucky bluegrass (in words),Kentucky bluegrass [8],safe
